For data set [1], the target named is T1, Greatwall kinase (GWL, MASTL) (Homo sapiens, UniProt Q96GX5, K72M).
T1 construct: full-length
T1 sequence (Q96GX5 1-879 K72M): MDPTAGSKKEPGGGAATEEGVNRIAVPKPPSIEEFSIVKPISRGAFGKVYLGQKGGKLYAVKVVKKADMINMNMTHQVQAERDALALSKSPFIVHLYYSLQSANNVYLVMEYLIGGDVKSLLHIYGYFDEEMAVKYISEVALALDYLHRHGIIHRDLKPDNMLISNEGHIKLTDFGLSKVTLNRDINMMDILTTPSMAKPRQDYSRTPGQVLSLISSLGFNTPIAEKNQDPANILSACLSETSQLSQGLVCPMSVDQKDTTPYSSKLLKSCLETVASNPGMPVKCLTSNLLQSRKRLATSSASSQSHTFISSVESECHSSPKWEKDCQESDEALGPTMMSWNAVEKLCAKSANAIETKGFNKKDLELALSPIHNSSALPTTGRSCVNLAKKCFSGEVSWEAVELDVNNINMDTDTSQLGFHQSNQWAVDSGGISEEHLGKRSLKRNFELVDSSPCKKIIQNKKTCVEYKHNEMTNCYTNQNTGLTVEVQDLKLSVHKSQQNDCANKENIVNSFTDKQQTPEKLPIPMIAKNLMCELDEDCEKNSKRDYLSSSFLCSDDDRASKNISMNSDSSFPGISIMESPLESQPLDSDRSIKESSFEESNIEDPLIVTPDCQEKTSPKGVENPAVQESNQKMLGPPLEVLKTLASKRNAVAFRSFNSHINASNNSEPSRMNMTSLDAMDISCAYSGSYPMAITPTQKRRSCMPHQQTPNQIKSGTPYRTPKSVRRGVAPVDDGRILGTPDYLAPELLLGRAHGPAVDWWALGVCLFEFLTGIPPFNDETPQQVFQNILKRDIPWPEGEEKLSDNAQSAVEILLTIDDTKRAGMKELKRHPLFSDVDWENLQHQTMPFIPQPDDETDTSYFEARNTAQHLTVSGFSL
Nature of the data set: HTRF kinase assay with purified full-length GWL (K72M) and ENSA. In kind it is biochemical.

Data set [2] deals with T2, CDK1/cyclinB (Homo sapiens, UniProt P06493). The experiment in a line: biochemical. Conditions: read-out: off-target pIC50 (converted). More on the design: CDK1/cyclin B and off-target kinase inhibition assay.
T2 sequence (P06493 whole entry): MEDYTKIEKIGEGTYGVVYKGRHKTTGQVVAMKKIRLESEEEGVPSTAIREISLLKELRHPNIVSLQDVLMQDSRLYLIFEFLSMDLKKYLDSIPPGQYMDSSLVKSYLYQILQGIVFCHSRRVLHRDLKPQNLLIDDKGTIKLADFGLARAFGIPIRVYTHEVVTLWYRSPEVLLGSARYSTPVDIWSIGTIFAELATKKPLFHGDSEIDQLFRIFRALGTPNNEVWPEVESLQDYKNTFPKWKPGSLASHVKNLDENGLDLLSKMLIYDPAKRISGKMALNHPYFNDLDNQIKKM
T2 sequence (P14635 whole entry partner): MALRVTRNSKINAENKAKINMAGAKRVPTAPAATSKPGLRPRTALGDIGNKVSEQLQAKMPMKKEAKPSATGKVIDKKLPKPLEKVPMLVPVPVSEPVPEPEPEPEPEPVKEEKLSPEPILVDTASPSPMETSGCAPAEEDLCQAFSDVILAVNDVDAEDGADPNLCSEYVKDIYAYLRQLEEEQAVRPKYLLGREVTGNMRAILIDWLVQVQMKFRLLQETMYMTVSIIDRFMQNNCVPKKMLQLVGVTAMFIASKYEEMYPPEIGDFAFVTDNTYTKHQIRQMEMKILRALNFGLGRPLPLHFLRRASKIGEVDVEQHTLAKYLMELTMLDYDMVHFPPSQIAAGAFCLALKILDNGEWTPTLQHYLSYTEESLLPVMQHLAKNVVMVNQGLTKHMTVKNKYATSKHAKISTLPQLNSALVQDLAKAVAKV
Data set [3] in a line: physchem. More on the design: aqueous solubility at pH 7.0. Conditions: pH 7.0; buffer pH 7.0; aqueous buffer pH 7.0. The text has this: (§1) We selected compound 1 as the lead exemplar of cluster 3 and leveraged it as a foundation for subsequent drug development (Fig. 1a). Structure-activity relationship studies and pharmacokinetic profiling produced several derivative molecules, of which compound 21 provided the best combination of outstanding inhibitory potential, low clearance in mouse microsomes and acceptable solubility (Fig. 1a–c and Supplementary Tables 1–4). […] This assessment was supported by structural modelling of the interaction between compound 21 and the active site of GWL (Fig. 1d). In further support of its GWL-targeting properties, compound 21 diminished the phosphorylation of the canonical GWL substrate ENSA(S67) in Xenopus laevis cytostatic factor (CSF) egg extract (Supplementary Fig. 2). Having satisfied the criteria of prospective GWL inhibitor, the racemic compound 21 was registered as UOS-00054604 and, for the remainder of the manuscript, is referred to as C-604.

Data set [4] concerns the target T2, CDK1/cyclinB. Nature of the data set: biochemical. More on the design: CDK1/cyclin B and off-target kinase inhibition assay.
The nature of data set [5]: in vitro. More on the design: intrinsic clearance in mouse microsomes. Conditions: liver microsomes; mouse liver microsomes.
Description: as §1

In data set [6] the target is T3, hERG (Homo sapiens, UniProt Q12809).
T3 construct: gene KCNH2
T3 sequence (Q12809 whole entry): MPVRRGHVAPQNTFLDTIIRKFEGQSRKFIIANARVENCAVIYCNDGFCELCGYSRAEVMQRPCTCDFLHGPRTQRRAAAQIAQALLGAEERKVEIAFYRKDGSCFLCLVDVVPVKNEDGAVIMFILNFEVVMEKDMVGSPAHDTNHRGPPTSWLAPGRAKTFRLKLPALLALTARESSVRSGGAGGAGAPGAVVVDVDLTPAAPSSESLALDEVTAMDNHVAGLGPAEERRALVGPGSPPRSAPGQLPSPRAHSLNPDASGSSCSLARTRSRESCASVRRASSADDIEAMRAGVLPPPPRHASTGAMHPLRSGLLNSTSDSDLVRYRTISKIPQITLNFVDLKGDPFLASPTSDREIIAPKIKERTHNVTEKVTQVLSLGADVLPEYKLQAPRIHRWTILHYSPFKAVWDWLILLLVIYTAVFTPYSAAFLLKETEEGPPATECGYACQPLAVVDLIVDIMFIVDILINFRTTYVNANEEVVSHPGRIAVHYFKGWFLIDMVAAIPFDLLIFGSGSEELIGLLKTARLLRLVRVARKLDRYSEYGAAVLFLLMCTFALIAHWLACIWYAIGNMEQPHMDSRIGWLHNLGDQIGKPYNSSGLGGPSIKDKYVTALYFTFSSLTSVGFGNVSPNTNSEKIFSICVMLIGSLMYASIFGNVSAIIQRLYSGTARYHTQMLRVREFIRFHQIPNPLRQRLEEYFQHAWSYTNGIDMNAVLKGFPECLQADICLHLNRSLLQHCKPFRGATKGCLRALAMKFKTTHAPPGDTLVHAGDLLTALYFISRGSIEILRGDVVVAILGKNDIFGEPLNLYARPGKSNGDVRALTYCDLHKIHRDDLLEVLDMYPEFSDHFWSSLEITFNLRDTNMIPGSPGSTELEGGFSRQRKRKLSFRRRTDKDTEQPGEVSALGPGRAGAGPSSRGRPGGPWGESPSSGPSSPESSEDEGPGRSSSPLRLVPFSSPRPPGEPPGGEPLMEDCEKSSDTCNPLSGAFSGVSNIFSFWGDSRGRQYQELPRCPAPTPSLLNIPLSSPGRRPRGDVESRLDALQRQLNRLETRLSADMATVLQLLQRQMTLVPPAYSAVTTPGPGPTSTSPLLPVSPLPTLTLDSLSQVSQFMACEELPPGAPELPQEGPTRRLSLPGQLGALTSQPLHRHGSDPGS
Nature of the data set: cell-based. Also noted: hERG channel inhibition.
Description: as §1

The target of data set [7] is T1, Greatwall kinase (GWL, MASTL). Nature of the data set: biochemical. More on the design: HTRF kinase assay with full-length GWL and ENSA, inhibition. The text has this:
To discover small molecules interfering with GWL activity, we screened a kinase-focused subset of the AstraZeneca compound collection in the full-length hyperactive GWL (K72M) homogeneous time-resolved fluorescence (HTRF) assay. The kinase screening collection comprised around 40,000 samples of interest, augmented by exemplars of kinase hinge-binding motifs, literature-reported kinase actives and screening catalogue purchases (mean MW ≈ 360, mean clogP ≈ 2.8), aiming to achieve as wide a coverage of the kinome as possible. Initially, we selected potential active molecules with a z-score ≤ −5 (equivalent to approximately 25% inhibition or better) and performed compound clustering, followed by near-neighbour testing and determination of relevant median inhibitory concentration (IC50) values. Subsequent re-clustering based on GWL inhibitory potency, Cdk1 selectivity, broad kinome selectivity and additional known factors influencing drug developability, such as molecular weight, lipophilicity and the number of hydrogen donors and acceptors, generated six prioritised compound clusters (Supplementary Fig. 1a, b). […] Despite the favourable kinase selectivity profile of cluster 5, we considered this series less attractive due to the limited number of compounds (n = 5) and suboptimal molecular properties for a hit, such as higher lipophilicity, lower binding efficiency (as indicated by ligand-lipophilic efficiency, LLE) and greater molecular weight (Supplementary Fig. 1a, b). […] We selected compound 1 as the lead exemplar of cluster 3 and leveraged it as a foundation for subsequent drug development (Fig. 1a). Structure-activity relationship studies and pharmacokinetic profiling produced several derivative molecules, of which compound 21 provided the best combination of outstanding inhibitory potential, low clearance in mouse microsomes and acceptable solubility (Fig. 1a–c and Supplementary Tables 1–4). […] This assessment was supported by structural modelling of the interaction between compound 21 and the active site of GWL (Fig. 1d). In further support of its GWL-targeting properties, compound 21 diminished the phosphorylation of the canonical GWL substrate ENSA(S67) in Xenopus laevis cytostatic factor (CSF) egg extract (Supplementary Fig. 2). Having satisfied the criteria of prospective GWL inhibitor, the racemic compound 21 was registered as UOS-00054604 and, for the remainder of the manuscript, is referred to as C-604.  Fig. 1 Development and characterisation of the GWL kinase inhibitor C-604. a Chemical structure of the lead exemplar compound 21 and the general synthetic route towards the preparation of pyrrolopyrazine GWL inhibitors. (a) for 4a, (i) NaH, SEM-Cl, DMF, 0 °C, 4 h; (ii) Arnold’s reagent, CHCl3, 60 °C, 20 h; (iii) NaClO2, KH2PO4, NH2SO3H, 1,4-dioxane/water, 0 °C to rt, 2 h, 35% (three steps); for 4b, (i) hexamine, TFA, MW, 80 °C, 20 min; (ii) NaH, SEM-Cl, DMF, 0 °C to rt, 16 h; (iii) NaClO2, KH2PO4, NH2SO3H, 1,4-dioxane/water, 0 °C to rt, 1.5 h, 14% (three steps); (b) 2 M methylamine in THF, T3P, pyridine, EtOAc, 60 °C, 2-4 h, 89-97%; (c) 2-(pyrrolidin-1-yl)ethanol, CuI, L-proline, K2CO3, DMSO, 100 °C, 16 h, 48%; (d) TFA, DCM, rt, 16 h then ethylenediamine, DCM, rt, 3-6 h, 29-92%; (e) 1-methylpiperazine, CuI, L-proline, K2CO3, DMSO, 100 °C, 16 h, 77%; (f) boronate ester, Pd(dppf)Cl2 · DCM, 1,4-dioxane/water, MW, 120 °C, 30 min, 43-81%; (g) boronate ester, Pd(dppf)Cl2 · DCM, 1,4-dioxane/water, MW, 120 °C, 30 min, 56%; (h) amine, K2CO3, DMF, 95 °C, 1 h, 32-67%. b Chemical structure of the lead compound 21 (C-604). c Dose-dependent effect of compound 21 (C-604) on the in vitro GWL activity measured by an HTRF assay utilising purified full-length GWL (K72M) and ENSA. Per cent (%) inhibition was determined from fluorescence intensity values normalised to the signal measured in the control enzyme-free reaction. […]

Data set [8] can be described thus: in vitro. Also noted: intrinsic clearance in human microsomes. Conditions: liver microsomes, human liver microsomes.
Description: as §1

Data set [9] addresses Syk (Homo sapiens, UniProt P43405). Nature of the data set: biochemical. Also noted: CDK1/cyclin B and off-target kinase inhibition assay. The note with it: read-out: off-target pIC50 (converted).

Read-outs that look alike come from different tables or passages of the source.

For `CNC(=O)c1c[nH]c2ncc(-c3ccc(OCCN4CC[C@H](c5ccccc5)C4)cc3)nc12` [21 (R), compound 21, R stereoisomer], the IC50 in [1] came to 0.0133 ± 0.0064 µM.

Regarding `CNC(=O)c1c[nH]c2ncc(-c3ccc(OCCN4CC[C@@H](c5ccccc5)C4)cc3)nc12` [21 (S), compound 21, S stereoisomer], in data set [1], the IC50 was determined as 0.0109 ± 0.002 µM.

Consider `CNC(=O)c1c[nH]c2ncc(-c3cn(C)c4ccccc34)nc12` [compound 1, 1], for which the IC50 in data set [2] is 3.16 µM; in data set [4], 1.48 µM; in data set [6] it was above 30 µM; in data set [7] (read-out: K72MGWL HTRF pIC50 (converted)), 0.1 µM; in data set [9], 0.0251 µM. For the same compound, the solubility in data set [3] was 15 µM. In addition, the figures for the microsomal CLint in data set [5], in [8] (read-out: Cl (human)) and in data set [8] (read-out: hMic Clint) were 196 µL/min/mg, 147 µL/min/mg and 45 µL/min/mg, respectively.

As for `CNC(=O)c1c[nH]c2ncc(OCCN3CCCC3)nc12` [compound 6, 6], the IC50 in data set [7] worked out at 5.88 µM.

Turning to `CNC(=O)c1c[nH]c2ncc(N3CCN(C)CC3)nc12` [compound 7, 7], the IC50 in [7] came out at 4.24 µM.

On to `CNC(=O)c1c[nH]c2ncc(-c3ccc(C#N)cc3)nc12` [compound 8, 8], for which the IC50 in data set [7] stood at 0.339 µM.

With `CNC(=O)c1c[nH]c2ncc(-c3cccnc3)nc12` [compound 10, 10], the IC50 in data set [7] was 0.507 µM.

With `CNC(=O)c1c[nH]c2ncc(-c3cccc(CN(C)C)c3)nc12` [compound 11, 11], in [7], the IC50 was 0.206 µM.

With `CNC(=O)c1c[nH]c2ncc(-c3cccc(C(=O)NCCN(C)C)c3)nc12` [compound 12, 12], the IC50 in data set [7] amounted to 0.062 µM.

For the compound `CNC(=O)c1c[nH]c2ncc(-c3ccc(C(=O)NCCN(C)C)cc3)nc12` [compound 13, 13], the IC50 in data set [7] stood at 0.094 µM.

As to `CNC(=O)c1c[nH]c2ncc(-c3ccc(N4CCN(C)CC4)cc3)nc12` [compound 14, 14], the solubility in data set [3] came to 260 µM. In addition, the IC50 in [4] is above 30 µM. For the same compound, the microsomal CLint stood at 83 µL/min/mg in [5] and 9 µL/min/mg in data set [8] (read-out: Cl (human)).

As to `CNC(=O)c1c[nH]c2ncc(-c3ccc(OCCN4CCOCC4)cc3)nc12` [compound 15, 15], in [5], the microsomal CLint is 11 µL/min/mg. The IC50 in [7] was found to be 0.191 µM.

In the case of `CNC(=O)c1c[nH]c2ncc(-c3ccc(OCCN4CCN(C)CC4)cc3)nc12` [compound 16, 16], the microsomal CLint in data set [5] is 18 µL/min/mg. Moreover, the IC50 in data set [7] is 0.031 µM.

With `CNC(=O)c1c[nH]c2ncc(-c3ccc(OCCN4CCN(C(C)=O)CC4)cc3)nc12` [compound 17, 17], the microsomal CLint in data set [5] came to 7 µL/min/mg. Further, the IC50 in [7] stood at 0.08 µM.

Regarding `CNC(=O)c1c[nH]c2ncc(-c3ccc(OCCN4CCC(OC)CC4)cc3)nc12` [compound 18, 18], the solubility in data set [3] is 504 µM.

For the compound `CNC(=O)c1c[nH]c2ncc(-c3ccc(OCCN4CCCC4)cc3)nc12` [compound 19, 19], the microsomal CLint in data set [5] is 37 µL/min/mg.

On to `CNC(=O)c1c[nH]c2ncc(-c3ccc(OCCN4CCCCC4)cc3)nc12` [compound 20, 20], for which the solubility in data set [3] was 585 µM. Moreover, in data set [5], the microsomal CLint came out at 12 µL/min/mg.
